Test results from patent US20260124192A1, “COMPOUNDS, COMPOSITIONS, AND METHODS OF TREATING RNA VIRAL INFECTIONS” (priority 2024, published 2026).

Legend:
13 viruses and variants = experiment: organism not typed; type: cell-based; settings: read-out: antiviral activity (best EC50 per virus/strain/variant)
SARS-CoV-2 USA-WA1/2020 = experiment: SARS-CoV-2 CPE assay, Vero 76 (Method 2); type: cell-based; settings: Severe acute respiratory syndrome coronavirus 2, 2% FBS
in vitro [1] = settings: dog, CC50 (μM), MDCK; with Influenza B CPE assays
Cytotoxicity, XTT, MRC-5 = settings: human
in vitro [2] = settings: human
[3] = Cytotoxicity, neutral red dye-uptake, HG23; type: cell-based; settings: human, HG23 cells, with Norwalk Virus CPE assay, not converted
Experimental: Compounds were tested in an assay medium containing 2% fetal bovine serum (FBS). Test compounds were added to cells prior to infection with virus at a multiplicity of infection (MOI) sufficient to induce visible cytopathic effect (CPE). […] Additionally, the EC90 was defined as the concentration required to achieve a 1 log10 reduction in viral titer. Dose-response curves depicting viral CPE (red line) and compound cytotoxicity (purple line) were generated to support these analyses.

in vitro [4] = settings: human, CC50 (μM), A549-ACE2; with CPE assays (SARS-CoV-2 WA1, Delta, OC43); not converted for FBS
[5] = XTT cell viability assay, Huh-luc/neo-ET; type: cell-based; settings: human, Huh-luc/neo-ET cells, with HCV replicon assay, not converted, read-out: CC50
Experimental: (§1) Twenty-four hours after seeding the cells, the cell culture supernatant was removed from each well and replaced with 175 μL fresh complete medium minus G418. Test compounds were evaluated at a high-test concentration of 10 μM and five serial half-logarithmic dilutions in three biological replicates. In three biological replicates, Sofosbuvir was evaluated in parallel at a high-test concentration of 1 μM and five serial half-logarithmic dilutions. Compounds were first serially diluted in DMSO to 400× of each final in-well concentration. An intermediate 8× solution was prepared in a complete medium and then added to the cells in a volume of 25 μL per well. A complete medium containing an equal percentage of DMSO (v/v) was added to vehicle-treated control cells. The final DMSO concentration was 0.25% (v/v) for all samples. The cells were incubated for an additional 72 hours at 37° C./5% CO2, then HCV replication was measured by luciferase activity and cell viability was assessed in parallel using an XTT colorimetric assay.
(§2) Huh-luc/neo-ET cell viability was measured at 72 hours after treatment using the tetrazolium dye XTT (2,3-bis(2-methoxy-4-nitro-5-sulfophenyI)-5[(phenylamino)carbonyl]-2H-tetrazolium hydroxide). Mitochondrial enzymes of metabolically active cells metabolize XTT-tetrazolium to a soluble formazan product. XTT solution was prepared fresh at 1 mg/mL in DMEM. Phenazine methosulfate (PMS) solution was prepared at 0.15 mg/mL in PBS and stored in the dark at −20° C. An XTT/PMS stock was prepared immediately before use by adding 40 μL of PMS per ml of XTT solution. Fifty microliters (50 μL) XTT/PMS were added per well, and the cells were incubated for 4 hours at 37° C. The cell culture plates were then sealed with adhesive plate sealers and shaken gently or inverted several times to mix the soluble formazan product. The formazan product was measured spectrophotometrically by absorbance at 450/650 nm on a Vmax plate reader (Molecular Devices). The raw data in Softmax Pro 5.4.2 software was imported into Microsoft Excel for further analysis. Data are presented as absorbance values (450/650 nm) or the percentage of viable cells relative to vehicle-treated control (mean+1—standard deviation, n=3 biological replicates from one independent experiment).

Huh-luc/neo-ET cells = experiment: XTT cell viability assay, Huh-luc/neo-ET; type: cell-based; settings: XTT, 72 hours, read-out: HCV 1b - TC50
Experimental: as §1, §2

[6] = system: MCF7 wild-type cell lines; experiment: MCF7 growth inhibition assay (Cell Titre Glo 2.0); type: cell-based; settings: Homo sapiens, MCF7, 120 h, read-out: MCF-7 IC50 (μM)
Experimental: The growth inhibition properties of inhibitors on MCF7 wild-type cell lines were evaluated using the Cell Titre Glo 2.0 cell viability reagent. The assay utilized 384-well black clear bottom plates with 20 μl of MCF7 wild-type cell suspension mixed with reference/test compounds and 20 μl of Cell Titre Glo 2.0 reagent. Cells were seeded at a density of 1000 cells/well in DMEM High Glucose culture media+10% Fetal Bovine Serum (FBS). Staurosporine and Camptothecin served as positive controls for confirming cytotoxicity at a concentration of 30 μM, and vehicle control of 1% DMSO was used to standardize conditions across all test points. The assay and culture media both contained 1% DMSO. Assays were conducted in duplicate for each concentration of the test compounds. The incubation period for the assay was set at 120 hours, after which growth inhibition was assessed. Using a multi-mode reader, the assay readout was based on luminescence measured in Relative Light Units (RLUs). The viability luminescence signal was monitored continually from the same wells over an extended period, allowing for detailed analysis of cell viability. Measurements were taken using an integration time ranging from 0.25 to 1 second across plates designated for various time points.
Cells were maintained and seeded in 384 […] plates, maintaining 1000 cells/well. Seeded plates were incubated at 37° C., 5% CO2 for 16-18 hours to ensure optimal cell adherence and growth. Post-incubation, reference, and test compounds were added carefully to the wells for further processing. Plates were incubated again at 37° C., 5% CO2 for 120 hours (5 days) to allow compound effects. This was followed by the addition of CTG reagent as per the kit's instruction protocol for 30 minutes and RLU data to be recorded. Post plate read data to be analyzed using GraphPad Prism for software IC50 value generation.
Next, the NCEs were tested for selective estrogen regulation modulation activity by using a growth inhibition assay. The assay is performed on MCF7 cells, which are derived from a hormone-dependent breast cancer that stops growing upon estrogen receptor inhibition. […] Staurosporine and Camptothecin served as positive controls for cytotoxicity and 1% DMSO as the vehicle control.

[7] = Cytotoxicity, MTT assay in uninfected A549; type: cell-based; settings: human, uninfected A549 cells, with Influenza A IF assay, not converted
A549-ACE2 cells = settings: with CPE assays (SARS-CoV-2 WA1, Delta, OC43), not converted for FBS
CoV229E = experiment: Anti-Coronavirus 229E cytoprotection (CPE) assay, MRC-5 (Method 3); type: cell-based, human Coronavirus 229E; settings: Human coronavirus 229E, MRC5, […], read-out: CoV229E - EC50 (μM)
FBS = experiment: Protein binding by rapid equilibrium dialysis (RED) in FBS; settings: 1 μM, n = 3

For `Cc1c(-c2ccc(O)cc2)n(Cc2ccc(OCCN3CCCCC3)cc2)c2ccc(O)cc12` [Pipendoxifene], the EC50 (13 viruses and variants) was less than 10 µM, the EC50 (SARS-CoV-2 USA-WA1/2020) was 2.6 µM and the CC50 (in vitro [1]) was 9.8 µM. It also gave a CC50 at 6 days (Cytotoxicity, XTT, MRC-5) greater than 1 µM, a CC50 (in vitro [2]) of 1 µM and a CC50 [3] of 18 µM. The CC50 (in vitro [4]) was greater than 10 µM, the CC50 at 72 h [5] was greater than 10 µM and the CC50 (Huh-luc/neo-ET cells) was greater than 10 µM. The IC50 [6] was 0.00064 µM, the CC50 at 24 h [7] was 13.7 µM and the CC50 (A549-ACE2 cells) was greater than 15 µM. The EC50 (CoV229E) was 0.11 to 0.52 µM, the “Mean unbound (Fub, %)” value (FBS; 2% heat inactivated FBS) was 25.0% and the “Mean unbound (Fub, %)” value (FBS; 10% heat inactivated FBS) was 5.0%. The “Mean unbound (Fub, %)” value (FBS; 10% not inactivated FBS) was 4.7%.
